IC50 data for 22 molecules are collected here from patent publication US10131642B1, “Aldosterone synthase inhibitors” (Boehringer Ingelheim International GmbH, priority 2015, dated 2018).

Bounds are passed on as bounds.

The target of experiment [1] is T1, aldosterone synthase (CYP11B2) (Macaca fascicularis, UniProt A0A2K5UPL9).
T1 construct: cynomolgus adrenal gland mitochondria as the source of aldosterone synthase (CYP11B2); from tissue; host or cells: cynomolgus monkey adrenal gland mitochondria
T1 sequence (A0A2K5UPL9 1-503): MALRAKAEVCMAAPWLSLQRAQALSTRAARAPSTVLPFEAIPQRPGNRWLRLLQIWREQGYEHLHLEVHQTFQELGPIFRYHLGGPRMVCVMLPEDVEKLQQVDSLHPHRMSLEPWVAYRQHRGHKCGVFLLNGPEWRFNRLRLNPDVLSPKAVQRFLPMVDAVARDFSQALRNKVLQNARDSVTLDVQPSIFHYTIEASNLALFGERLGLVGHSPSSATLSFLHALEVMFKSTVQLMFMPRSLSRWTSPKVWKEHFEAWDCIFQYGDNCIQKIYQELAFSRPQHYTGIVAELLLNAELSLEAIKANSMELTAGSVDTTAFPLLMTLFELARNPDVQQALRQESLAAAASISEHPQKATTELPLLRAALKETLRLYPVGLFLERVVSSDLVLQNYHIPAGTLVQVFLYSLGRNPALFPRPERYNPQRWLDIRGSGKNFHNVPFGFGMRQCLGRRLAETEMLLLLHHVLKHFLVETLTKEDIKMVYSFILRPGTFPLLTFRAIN
The experiment is described as follows: Inhibition of aldosterone synthase (cynomolgus adrenal mitochondria, aldosterone by mass spectrometry). To be noted: cynomolgus adrenal gland mitochondria, 2 μM corticosterone substrate, 90 minutes at 37° C. It counts as biochemical, cynomolgus monkey. The method, boiled down: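 Cynomolgus adrenal mitochondria (50 units CYP11B2 activity) with 2 μM corticosterone in 100 mM potassium phosphate pH 7.4, 1% DMSO. Started with 1 mM NADPH, 90 min at 37° C. Aldosterone measured by mass spectrometry; IC50 from 4-parameter logistic fit, NADPH-free reactions as blank.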

Experiment [2] addresses cortisol synthase (CYP11B1) (Macaca fascicularis, UniProt A0A2K5ULY1). As to the kind of experiment: Inhibition of cortisol synthesis (cynomolgus adrenal mitochondria, cortisol by mass spectrometry). It counts as biochemical, cynomolgus monkey. Conditions: cynomolgus adrenal gland mitochondria, 11-deoxycortisol as substrate, cortisol measured as product; read-out: CYP11B1 Inhibition IC50. The method, boiled down:
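Cynomolgus adrenal mitochondria supplied CYP11B1 (150 units) with 11-deoxycortisol as substrate, plus NADPH; cortisol product measured by mass spectrometry. Activity expressed as % of compound-free NADPH control across compound concentrations; IC50 from 4-parameter logistic fit.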

As for `CC(C)C1CC(=O)c2c(noc2CC2CCN(C(=O)CO)CC2)C1` (centres unmarked) [Cpd 19, 3-[1-(2-Hydroxy-acetyl)-piperidin-4-ylmethyl]-6-isopropyl-6,7-dihydro-5H-benzo[c]isoxazol-4-one], the IC50 came out at 200 nM in experiment [1] and 9900 nM in experiment [2].
`CC1(C)CC(=O)c2c(noc2Cc2ccc(OCCS(C)(=N)=O)cc2)C1` (centres unmarked) [Cpd 85, 3-[4-(2-Methanesulfoximine-ethoxy)-benzyl]-6,6-dimethyl-6,7-dihydro-5H-benzo[c]isoxazol-4-one]: the results for the IC50 in experiment [1] and in experiment [2] were 56 nM and 6500 nM, respectively.
Turning to `COc1ccc(Cc2onc3c2C(=O)CC(C)(C)C3)cc1C#N` [Cpd 34, 5-(6,6-Dimethyl-4-oxo-4,5,6,7-tetrahydro-benzo[c]isoxazol-3-ylmethyl)-2-methoxy-benzonitrile], the IC50 is 120 nM in experiment [1] and 25000 nM in experiment [2].
The matching figures for `CC1(C)CC(=O)c2c(noc2Cc2cccc(F)c2)C1` [Cpd 31, 3-(3-Fluoro-benzyl)-6,6-dimethyl-6,7-dihydro-5H-benzo[c]isoxazol-4-one]: 84 nM and 7400 nM.
In the same order, the values of `CC1CC(=O)c2c(noc2Cc2ccc(C(=O)O)cc2)C1` (centres unmarked) [Cpd 41, 4-(6-Methyl-4-oxo-4,5,6,7-tetrahydro-benzo[c]isoxazol-3-ylmethyl)-benzoic acid] are 660 nM and 20000 nM.
In the case of `CC1(C)CC(=O)c2c(noc2Cc2ccc(C(=O)N3CCNC(=O)C3)cc2)C1` [Cpd 62, 6,6-Dimethyl-3-[4-(3-oxo-piperazine-1-carbonyl)-benzyl]-6,7-dihydro-5H-benzo[c]isoxazol-4-one], the 50% inhibitory concentration (IC50) worked out at 98 nM in experiment [1] and 20000 nM in experiment [2].
In the same order, the values of `CC1(C)CC(=O)c2c(noc2Cc2ccc(C(=O)N3CC[C@H](O)C3)cc2)C1` [Cpd 65, 3-[4-((S)-3-Hydroxy-pyrrolidine-1-carbonyl)-benzyl]-6,6-dimethyl-6,7-dihydro-5H-benzo[c]isoxazol-4-one] are 110 nM and 7600 nM.
Regarding `CC1(C)Cc2noc(Cc3ccc(OCCCS(C)(=O)=O)cc3)c2C(=O)O1` [Cpd 90, 3-[4-(3-Methanesulfonyl-propoxy)-benzyl]-6,6-dimethyl-6,7-dihydro-pyrano[4,3-c]isoxazol-4-one], the figures for the IC50 in experiment [1] and in experiment [2] were 16 nM and 4600 nM, respectively.
With `CC1(C)Cc2noc(Cc3ccc(C(=O)NCCS(C)(=O)=O)cc3)c2C(=O)O1` [Cpd 94, 4-(6,6-Dimethyl-4-oxo-6,7-dihydro-4H-pyrano[4,3-c]isoxazol-3-ylmethyl)-N-(2-methanesulfonyl-ethyl)-benzamide], the half-maximal inhibitory concentration (IC50) was 42 nM in experiment [1] and 4300 nM in experiment [2].
Take `CC1(C)CC(=O)c2c(noc2Cc2ccc(C(=O)N3CCCC3)cc2)C1` [Cpd 52, 6,6-Dimethyl-3-[4-(pyrrolidine-1-carbonyl)-benzyl]-6,7-dihydro-5H-benzo[c]isoxazol-4-one]: the results for the half-inhibitory concentration (IC50) in experiment [1] and in experiment [2] were 32 nM and 14000 nM, respectively.
Turning to `CN(C)C(=O)CCOc1ccc(Cc2onc3c2C(=O)CC(C)(C)C3)cc1` [Cpd 82, 3-[4-(6,6-Dimethyl-4-oxo-4,5,6,7-tetrahydro-benzo[c]isoxazol-3-ylmethyl)-phenoxy]-N,N-dimethyl-propionamide], the values for the IC50 in experiment [1] and in experiment [2] were 44 nM and 4000 nM, respectively.
In the same order, the values of `CCN(CCO)C(=O)c1ccc(Cc2onc3c2C(=O)CC(C)(C)C3)cc1` [Cpd 55, 4-(6,6-Dimethyl-4-oxo-4,5,6,7-tetrahydro-benzo[c]isoxazol-3-ylmethyl)-N-ethyl-N-(2-hydroxy-ethyl)-benzamide] are 68 nM and 5400 nM.
As for `NC(=O)c1ccc(Cc2onc3c2C(=O)CC2(CCC2)C3)cc1` [Cpd 77, 4-(-6,6-spiro-cyclobutyl-4-oxo-4,5,6,7-tetrahydro-benzo[c]isoxazol-3-ylmethyl)-benzamide], the concentration for half-maximal inhibition (IC50) is 12 nM in experiment [1] and 130 nM in experiment [2].
Take `CC1(C)Cc2noc(Cc3ccc(OCCS(C)(=O)=O)cc3)c2C(=O)O1` [Cpd 91, 3-[4-(2-Methanesulfonyl-ethoxy)-benzyl]-6,6-dimethyl-6,7-dihydro-pyrano[4,3-c]isoxazol-4-one]: the IC50 in experiment [1] was 120 nM; in experiment [2], 21000 nM.
Regarding `CC1(C)CC(=O)c2c(noc2Cc2ccc(C(N)=O)cc2)C1` [Cpd 75, 4-(6,6-Dimethyl-4-oxo-4,5,6,7-tetrahydro-benzo[c]isoxazol-3-ylmethyl)-benzamide], the concentration for half-maximal inhibition (IC50) in experiment [1] is 100 nM; in experiment [2], 15000 nM.
As for `CC(C)C1CC(=O)c2c(noc2CC2CCN(C(N)=O)CC2)C1` (stereo not drawn) [Cpd 21, 4-(6-Isopropyl-4-oxo-4,5,6,7-tetrahydro-benzo[c]isoxazol-3-ylmethyl)-piperidine-l-carboxylic acid amide], the IC50 in experiment [1] was 330 nM; in experiment [2], 23000 nM.
In the same order, the values of `COc1ccc(Cc2onc3c2C(=O)OC(C)(C)C3)cc1` [Cpd 89, 3-(4-Methoxy-benzyl)-6,6-dimethyl-6,7-dihydro-pyrano[4,3-c]isoxazol-4-one] are 27 nM and 9800 nM.
In the same order, the values of `CC1CC(=O)c2c(noc2Cc2ccc(C(=O)N3CCN(C)C(=O)C3)cc2)C1` (stereo not drawn) [Cpd 66, 6-Methyl-3-[4-(4-methyl-3-oxo-piperazine-l-carbonyl)-benzyl]-6,7-dihydro-5H-benzo[c]isoxazol-4-one] are 120 nM and 5000 nM.
On to `CC1(C)CC(=O)c2c(noc2Cc2ccc(C(=O)NCCC#N)cc2)C1` [Cpd 68, N-(2-Cyano-ethyl)-4-(6,6-dimethyl-4-oxo-4,5,6,7-tetrahydro-benzo[c]isoxazol-3-ylmethyl)-benzamide], for which the IC50 in experiment [1] stood at 160 nM; in experiment [2], 7800 nM.
As to `CC1(C)CC(=O)c2c(noc2Cc2ccc(F)cc2)C1` [Cpd 13, 3-(4-Fluoro-benzyl)-6,6-dimethyl-6,7-dihydro-5H-benzo[c]isoxazol-4-one], the half-maximal inhibitory concentration (IC50) amounted to 190 nM in experiment [1] and 22000 nM in experiment [2].
As for `CC1(C)CC(=O)c2c(noc2Cc2ccc(C(=O)O)cc2)C1` [Cpd 40, 4-(6,6-Dimethyl-4-oxo-4,5,6,7-tetrahydro-benzo[c]isoxazol-3-ylmethyl)-benzoic acid], the half-maximal inhibitory concentration (IC50) in experiment [1] is above 1000 nM; in experiment [2], above 100000 nM.
`COCCNC(=O)c1ccc(Cc2onc3c2C(=O)CC(C)(C)C3)cc1` [Cpd 58, 4-(6,6-Dimethyl-4-oxo-4,5,6,7-tetrahydro-benzo[c]isoxazol-3-ylmethyl)-N-(2-methoxy-ethyl)-benzamide]: the figures for the IC50 in experiment [1] and in experiment [2] were 89 nM and 3400 nM, respectively.

Broadly, the IC50 is the midpoint of a concentration-inhibition curve.
